Assay results reported in patent US20250319206A1, “CRISPR/CAS GENE EDITING OF NEH4 AND/OR NEH5 DOMAINS IN NRF2” (Christina Care Gene Editing Institute, Inc., priority 2024, published 2025).

Columns and labels:
Panc-1 cells = assay: Cell viability with gemcitabine, CellTiter-Glo 2.0, Panc-1 cells; type: cell-based, Human; details: naïve (unedited) Panc-1 cells, 72 hours
Description: Wildtype and transfected Panc-1 cells were plated to 24 well plates (n=5) at 50,000 cells per well and placed in incubator for 24 hours. The cells were then treated with either Gemcitabine (Selleckchem, Cat. S1714) or DMSO (Thermo Fisher, Cat. D12345). Cells treated with Gemcitabine were treated at one of the following concentrations: 0 μM, 2.5 μM, 5 μM, 25 μM while cells treated with DMSO were treated at: 0%, 0.025%, 0.05%, or 0.25%. Cells remained in Gemcitabine or DMSO for 72 hours before being evaluated using CellTiter-Glo 2.0 Cell Viability Assay (Promega, Cat. G9241).
Since our long-term objective is to develop an effective genetic treatment that would augment standard care, we decided to examine the possibility that we could restore sensitivity to gemcitabine by genetic editing of NRF2 in gemcitabine resistant Panc1 cells. We are using gemcitabine as a selection system to determine if gene editing at some level, can help restore tumor cell killing. We established the kill curve of Panc1 unedited cells by gemcitabine under our standard reaction conditions to serve as a baseline. […] Again, after 72 hours, each cell population was exposed to gemcitabine for an additional 72 hours and thereafter cell viability of the treated and untreated cells was measured using the Cell Titer 2.0 viability assay (Promega, Madison, WI, USA). […]

NRF2 = NRF2 western blot in Panc-1 cells; type: cell-based, Human; details: edited Panc-1 populations vs unedited, GAPDH loading control
Description: Panc-1 cell pellets were collected using a standard RIPA lysis buffer containing protease inhibitor cocktail. Total protein concentration of collected cells was then determined using BCA Protein Assay kit (Pierce, Rockford, IL, USA). The samples were boiled at 95° C. for 10 minutes and then underwent SDS-PAGE on a 10% Mini-PROTEAN TGX Stain-free Protein Gel (BioRad, Cat. 4568033) for 90 min at 100 V. The gel was then transferred to a nitrocellulose membrane using Trans-Blot Turbo Transfer Systems (BioRad, Hercules, CA, USA) with Trans-Blot Turbo RTA Mini 0.2 μm Nitrocellulose Transfer Kit (BioRad Cat. 1704158), mixed molecular weight program, 10 minutes. The blot was placed in 5% milk and blocked at room temperature on shaker for 2 hours. Incubation in primary NRF2 antibody was done overnight at 4° C. on shaker (1:1,000, Abcam ab62352). Membrane was then incubated at room temperature on shaker for 1 hour in NRF2 secondary (1:10,000, Abcam ab205718). The SuperSignal West Dura Extended Duration ECL (Pierce) kit was used on the LI-COR Odyssey FC to visualize bands. […]

Molecule | concentration of drug to achieve 75% killing (Panc-1 cells) [µM] | NRF2 protein knock down (NRF2)
Nc1ccn([C@@H]2O[C@H](CO)[C@@H](O)C2(F)F)c(=O)n1 [gemcitabine, reference compound] | ~100 | 
sg5: gRNA targeting exon 3 of NRF2; CCTCATTGTCATCTACAAAC GGG (guide CCTCATTGTCATCTACAAACGGG; listed as DNA, chemistry not given here) |  | significant knockdown of protein
